The values that follow come from patent US20250084084A1, “Crystalline form of (2R)-2-(5-fluoro-2-methoxypyridin-4-yl)-1-[(2S)-7-methyl-6-(pyrimidin-2-yl)-3,4-dihydro-1H-spiro[1,8-naphthyridine-2,3-pyrrolidin]-1-yl]propan-1-one” (Pfizer Inc., priority 2020, published 2025).

The target in this experiment is α-melanocyte-stimulating hormone receptor (hMC4R) (Homo sapiens (Human), UniProt P32245). The experiment is described as follows: In vitro binding affinity assay using hMC4R (radioligand competition binding, [125I]-(Nle4, D-Phe7)-α-MSH). The settings on record: geometric mean, read-out: Ki (nM) geometric. In a few lines: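 Membranes from CHO cells stably expressing hMC4R (2 μg/well) incubated 2 h RT with [125I]-NDP-α-MSH and compound (300 nM-0.01 nM, 1% DMSO); 2 μM α-MSH defined nonspecific binding. Filtration and scintillation counting; Ki from IC50 via Cheng-Prusoff.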
(In general: Displacement assays read how much labelled ligand stays bound in the presence of the test substance.)

Sequence of α-melanocyte-stimulating hormone receptor (hMC4R) (P32245 whole entry): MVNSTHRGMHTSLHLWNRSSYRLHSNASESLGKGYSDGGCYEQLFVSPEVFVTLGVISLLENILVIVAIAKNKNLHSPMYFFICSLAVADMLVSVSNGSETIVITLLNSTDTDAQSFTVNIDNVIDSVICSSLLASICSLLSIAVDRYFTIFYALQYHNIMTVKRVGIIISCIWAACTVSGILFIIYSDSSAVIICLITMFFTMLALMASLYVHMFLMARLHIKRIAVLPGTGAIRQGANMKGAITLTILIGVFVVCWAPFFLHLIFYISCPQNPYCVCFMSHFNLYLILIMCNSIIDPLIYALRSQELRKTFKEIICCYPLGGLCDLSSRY

What is called Ki is a dissociation constant, usually derived from enzyme kinetics or from competition with a known ligand. As for `COc1cc([C@@H](C)C(=O)N2CC[C@@]3(CCc4cc(-c5nccs5)c(C)nc4N3)C2)c(F)cn1` [Example 167, (2R)-2-(5-fluoro-2-methoxypyridin-4-yl)-1-[(2S)-7-methyl-6-(1,3-thiazol-2-yl)-3,4-dihydro-1H-spiro[1,8-naphthyridine-2,3′-pyrrolidin]-1′-yl]propan-1-one], the Ki came out at 5.4 nM.
As for `COc1cc([C@@H](C)C(=O)N2CC[C@@]3(CCc4cc(-c5nnc(N6CCCCC6)s5)c(C)nc4N3)C2)c(F)cn1` [Example 168, (2R)-2-(5-fluoro-2-methoxypyridin-4-yl)-1-{(2S)-7-methyl-6-[5-(piperidin-1-yl)-1,3,4-thiadiazol-2-yl]-3,4-dihydro-1H-spiro[1,8-naphthyridine-2,3′-pyrrolidin]-1′-yl}propan-1-one], the figure is 86 nM; as for `COc1cc([C@@H](C)C(=O)N2CC[C@@]3(CCc4cc(-c5ccncc5)c(C)nc4N3)C2)c(F)cn1` [Example 169, (2R)-2-(5-fluoro-2-methoxypyridin-4-yl)-1-[(2S)-7-methyl-6-(pyridin-4-yl)-3,4-dihydro-1H-spiro[1,8-naphthyridine-2,3′-pyrrolidin]-1′-yl]propan-1-one], 7.6 nM.
For `COc1cc([C@@H](C)C(=O)N2CC[C@@]3(CCc4cc(-c5cnc(C(F)(F)F)nc5)c(C)nc4N3)C2)c(F)cn1` [Example 170, (2R)-2-(5-fluoro-2-methoxypyridin-4-yl)-1-{(2S)-7-methyl-6-[2-(trifluoromethyl)pyrimidin-5-yl]-3,4-dihydro-1H-spiro[1,8-naphthyridine-2,3′-pyrrolidin]-1′-yl}propan-1-one] the value was 43 nM.
For `COc1cc([C@@H](C)C(=O)N2CC[C@@]3(CCc4cc(-c5csc(C6CC6)n5)c(C)nc4N3)C2)c(F)cn1` [Example 171, (2R)-1-[(2S)-6-(2-cyclopropyl-1,3-thiazol-4-yl)-7-methyl-3,4-dihydro-1H-spiro[1,8-naphthyridine-2,3′-pyrrolidin]-1′-yl]-2-(5-fluoro-2-methoxypyridin-4-yl)propan-1-one] the value was 3.6 nM.
For `COc1cc([C@@H](C)C(=O)N2CC[C@@]3(CCc4cc(-c5cccc(-c6cnco6)c5)c(C)nc4N3)C2)c(F)cn1` [Example 173, (2R)-2-(5-fluoro-2-methoxypyridin-4-yl)-1-{(2S)-7-methyl-6-[3-(1,3-oxazol-5-yl)phenyl]-3,4-dihydro-1H-spiro[1,8-naphthyridine-2,3′-pyrrolidin]-1′-yl}propan-1-one], the Ki is 85 nM.
As for `COc1cc([C@@H](C)C(=O)N2CC[C@@]3(CCc4cc(-c5ccc(C(F)F)nc5)c(C)nc4N3)C2)c(F)cn1` [Example 174, (2R)-1-{(2S)-6-[6-(difluoromethyl)pyridin-3-yl)-7-methyl-3,4-dihydro-1H-spiro[1,8-naphthyridine-2,3′-pyrrolidin]-1′-yl}-2-(5-fluoro-2-methoxypyridin-4-yl)propan-1-one], the figure is 26 nM; as for `COc1cc([C@@H](C)C(=O)N2CC[C@@]3(CCc4cc(-c5ccc(-c6noc(C)n6)cc5)c(C)nc4N3)C2)c(F)cn1` [Example 175, (2R)-2-(5-fluoro-2-methoxypyridin-4-yl)-1-{(2S)-7-methyl-6-[4-(5-methyl-1,2,4-oxadiazol-3-yl)phenyl]-3,4-dihydro-1H-spiro[1,8-naphthyridine-2,3′-pyrrolidin]-1′-yl}propan-1-one], 45 nM.
Take `COc1cc([C@@H](C)C(=O)N2CC[C@@]3(CCc4cc(-c5cc(C)ns5)c(C)nc4N3)C2)c(F)cn1` [Example 176, (2R)-2-(5-fluoro-2-methoxypyridin-4-yl)-1-[(2S)-7-methyl-6-(3-methyl-1,2-thiazol-5-yl)-3,4-dihydro-1H-spiro[1,8-naphthyridine-2,3′-pyrrolidin]-1′-yl]propan-1-one]: the Ki amounted to 26 nM.
For `COc1cc([C@@H](C)C(=O)N2CC[C@@]3(CCc4cc(-c5cncc(C6CC6)n5)c(C)nc4N3)C2)c(F)cn1` [Example 177, (2R)-1-[(2S)-6-(6-cyclopropylpyrazin-2-yl)-7-methyl-3,4-dihydro-1H-spiro[1,8-naphthyridine-2,3′-pyrrolidin]-1′-yl]-2-(5-fluoro-2-methoxypyridin-4-yl)propan-1-one] the value was 59 nM; for `COc1cc([C@@H](C)C(=O)N2CC[C@@]3(CCc4cc(-c5cccc(C(F)(F)F)n5)c(C)nc4N3)C2)c(F)cn1` [Example 178, (2R)-2-(5-fluoro-2-methoxypyridin-4-yl)-1-{(2S)-7-methyl-6-[6-(trifluoromethyl)pyridin-2-yl]-3,4-dihydro-1H-spiro[1,8-naphthyridine-2,3′-pyrrolidin]-1′-yl}propan-1-one], 4.7 nM.
As for `COc1cc([C@@H](C)C(=O)N2CC[C@@]3(CCc4cc(-c5ccc(C(F)F)cn5)c(C)nc4N3)C2)c(F)cn1` [Example 179, (2R)-1-{(2S)-6-[5-(difluoromethyl)pyridin-2-yl]-7-methyl-3,4-dihydro-1H-spiro[1,8-naphthyridine-2,3′-pyrrolidin]-1′-yl}-2-(5-fluoro-2-methoxypyridin-4-yl)propan-1-one], the figure is 21 nM; as for `COc1cc([C@@H](C)C(=O)N2CC[C@@]3(CCc4cc(-c5ccc(OC(F)(F)F)cn5)c(C)nc4N3)C2)c(F)cn1` [Example 180, (2R)-2-(5-fluoro-2-methoxypyridin-4-yl)-1-{(2S)-7-methyl-6-[5-(trifluoromethoxy)pyridin-2-yl]-3,4-dihydro-1H-spiro[1,8-naphthyridine-2,3′-pyrrolidin]-1′-yl}propan-1-one], 21 nM.
Consider `COc1cc([C@@H](C)C(=O)N2CC[C@@]3(CCc4cc(-c5cccc(C(F)F)n5)c(C)nc4N3)C2)c(F)cn1` [Example 181, (2R)-1-{(2S)-6-[6-(difluoromethyl)pyridin-2-yl)-7-methyl-3,4-dihydro-1H-spiro[1,8-naphthyridine-2,3′-pyrrolidin]-1′-yl}-2-(5-fluoro-2-methoxypyridin-4-yl)propan-1-one], for which the Ki amounted to 2.4 nM.
For `COc1cc([C@@H](C)C(=O)N2CC[C@@]3(CCc4cc(-c5nc(C(F)(F)F)cs5)c(C)nc4N3)C2)c(F)cn1` [Example 182, (2R)-2-(5-fluoro-2-methoxypyridin-4-yl)-1-{(2S)-7-methyl-6-[4-(trifluoromethyl)-1,3-thiazol-2-yl]-3,4-dihydro-1H-spiro[1,8-naphthyridine-2,3′-pyrrolidin]-1′-yl}propan-1-one] the value was 12 nM; for `COc1cc([C@@H](C)C(=O)N2CC[C@@]3(CCc4cc(-c5cc(C)nc(C(C)C)n5)c(C)nc4N3)C2)c(F)cn1` [Example 183, (2R)-2-(5-fluoro-2-methoxypyridin-4-yl)-1-{(2S)-7-methyl-6-[6-methyl-2-(propan-2-yl)pyrimidin-4-yl]-3,4-dihydro-1H-spiro[1,8-naphthyridine-2,3′-pyrrolidin]-1′-yl}propan-1-one], 4 nM; for `COc1cc([C@@H](C)C(=O)N2CC[C@@]3(CCc4cc(-c5nc(C)cc(C)n5)c(C)nc4N3)C2)c(F)cn1` [Example 184, (2R)-1-[(2S)-6-(4,6-dimethylpyrimidin-2-yl)-7-methyl-3,4-dihydro-1H-spiro[1,8-naphthyridine-2,3′-pyrrolidin]-1′-yl]-2-(5-fluoro-2-methoxypyridin-4-yl)propan-1-one], 6.3 nM.
